Test results published in patent publication US20250177359A1, “COMPOUNDS FOR USE IN THE TREATMENT OF CANCER AND INFLAMMATORY CONDITIONS” (priority 2022, published 2025).
Read-outs that look alike come from different tables or passages of the source.

Tests used:
[1] = target: T1, PARP2 (Homo sapiens, UniProt Q9UGN5); experiment: biochemical; type: biochemical
T1 construct: made in house
Experimental: (§1) All starting materials, reagents, and solvents were purchased from common commercial suppliers and were used as such without further purification. […] Organic solutions were dried over anhydrous Na2SO4 and concentrated with rotary evaporator at low pressure. All the reactions were routinely checked by thin-layer chromatography (TLC) on silica gel 60F254 (Merck) and visualized by using UV and iodine. Flash chromatography separations were carried out on Merck silica gel 60 (mesh 230-400) or by using automated Buchi Reveleris X2-UV with column FP Ecoflex Si 12 g. Yields were of purified products and were not optimized. ^1HNMR spectra were recorded at 400 MHz (Bruker Avance DRX-400), while ^13CNMR spectra were recorded at 101 MHz (Bruker Avance DRX-400). Chemical shifts are given in ppm (δ) relative to TMS. […] Mating constant (J) are reported in Hz. The purity of the tested compounds was evaluated by HPLC analysis using Jasco LC-4000 instrument equipped with a UV-Visible Diode Array Jasco-MD4015 (Jasco Corporation, Tokyo, Japan), and XTerra MS C18 column, 5 μm×4.6 mm×150 mm (Waters Corporation, Massachusetts, USA). Chromatograms were analyzed by ChromNAV2.0 Chromatography Data System software. […] The peak retention time (ret. time) is given in minutes. […] 1-Isobutoxy-4-methoxy-2-nitrobenzene (113). Isobutyl alcohol (0.6 mL, 6.43 mmol) was added, under nitrogen atmosphere at 0° C., to a suspension of NaH (0.26 g, 6.43 mmol) in dry DMF. After 15 minutes, 1-fluoro-4-methoxy-2-nitrobenzene 112 (1 g, 5.84 mmol) was also added and the reaction mixture was stirred at 80° C. for 4 h. […] (2-Isobutoxy-5-methoxyphenyl)amine (114). Zn (1.57 g, 24 mmol) and NH4C1 (2.45 g, 40 mmol) were added to a solution of 113 (0.46 g, 2 mmol) in acetone/H2O (50 mL, ratio 5:1). The reaction mixture was stirred at 60° C. for 3 h and, then, it was filtered over celite. […] N-(2,5-diethoxyphenyl)thiourea (55). […] N-(2-isobutoxy-5-methoxyphenyl)thiourea (115). […] A solution of Br2 (0.2 mL, 3.3 mmol) in CHCl3 (5 mL) was slowly added to a suspension of 45 (0.6 g, 3.3 mmol) in CHCl3 (13 mL), at 0° C. The reaction mixture was stirred at r.t. for 4 h and, then, a 10% solution of Na2SO3 in water was added to the mixture. […] 4,7-Diethoxy-1,3-benzothiazol-2-amine (66). […] 4-Isobutoxy-7-methoxy-1,3-benzothiazol-2-amine (116). […] Hydrazine hydrate (0.23 mL, 4.77 mmol) and CH3COOH (0.12 mL, 2.1 mmol) were added to a suspension of 56 (0.29 g, 1.59 mmol) in ethylene glycol (8 mL), and the reaction mixture was stirred for 24 h at 125° C. […] 6-Ethyl-2-hydrazino-1,3-benzothiazole (69). […] 6-Ispropyl-2-hydrazino-1,3-benzothiazole (70). […] 2-Hydrazino-4,7-dimethoxy-1,3-benzothiazole (73). […] 2-Hydrazino-5,7-dimethoxy-1,3-benzothiazole (75). […] 2-Hydrazino-4,7-Diethoxy-1,3-benzothiazole (77). […] 2-Hydrazino-5-methyl[1,3]thiazolo[5,4-b]pyridine (100). […] A solution of 67 (0.13 g, 0.65 mmol) in formic acid (5 mL) was refluxed for 10 h. The reaction mixture was then poured into ice/water and the pH was neutralized using a saturated solution of NaHCO3.

[2] = target: T2, TNKS2 (Homo sapiens, UniProt Q9H2K2); experiment: biochemical
T2 sequence (Q9H2K2 1-1166): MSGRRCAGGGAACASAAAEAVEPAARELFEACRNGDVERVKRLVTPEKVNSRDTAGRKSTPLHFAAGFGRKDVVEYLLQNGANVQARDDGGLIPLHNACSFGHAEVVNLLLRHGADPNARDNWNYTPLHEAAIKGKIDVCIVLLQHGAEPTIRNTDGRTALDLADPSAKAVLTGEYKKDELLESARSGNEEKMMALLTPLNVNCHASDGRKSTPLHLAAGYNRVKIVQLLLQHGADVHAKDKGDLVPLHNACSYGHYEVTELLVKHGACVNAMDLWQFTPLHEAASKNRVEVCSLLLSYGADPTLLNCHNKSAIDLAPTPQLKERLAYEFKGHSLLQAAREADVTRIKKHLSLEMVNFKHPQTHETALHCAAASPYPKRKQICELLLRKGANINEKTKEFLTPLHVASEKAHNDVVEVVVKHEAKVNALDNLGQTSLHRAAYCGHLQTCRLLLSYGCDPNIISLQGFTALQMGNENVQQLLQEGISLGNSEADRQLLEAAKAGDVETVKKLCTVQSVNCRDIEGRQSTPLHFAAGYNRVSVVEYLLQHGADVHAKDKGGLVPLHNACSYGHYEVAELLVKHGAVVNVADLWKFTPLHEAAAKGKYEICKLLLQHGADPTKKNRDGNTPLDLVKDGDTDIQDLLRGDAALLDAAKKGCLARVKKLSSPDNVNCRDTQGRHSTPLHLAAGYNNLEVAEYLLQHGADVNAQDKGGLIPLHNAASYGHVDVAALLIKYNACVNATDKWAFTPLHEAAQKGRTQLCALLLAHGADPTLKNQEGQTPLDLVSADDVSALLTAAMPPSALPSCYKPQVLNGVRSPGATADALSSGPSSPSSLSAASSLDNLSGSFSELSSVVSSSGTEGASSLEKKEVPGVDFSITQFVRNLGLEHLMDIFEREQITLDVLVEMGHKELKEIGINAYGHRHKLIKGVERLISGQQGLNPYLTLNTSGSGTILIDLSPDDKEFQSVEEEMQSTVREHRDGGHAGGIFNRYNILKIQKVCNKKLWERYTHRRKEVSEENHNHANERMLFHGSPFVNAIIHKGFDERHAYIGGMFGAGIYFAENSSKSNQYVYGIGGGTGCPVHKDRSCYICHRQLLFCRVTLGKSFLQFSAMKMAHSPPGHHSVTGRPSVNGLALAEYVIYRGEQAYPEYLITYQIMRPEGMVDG
Experimental: as §1

[3] = NAD+ consumption assay, > less than 50% inhibition at highest concentration, >> no inhibition
[4] = read-out: TNKS2 IC50, NAD+ consumption assay, > less than 50% inhibition at highest concentration, >> no inhibition

T1 sequence (Q9UGN5 whole entry): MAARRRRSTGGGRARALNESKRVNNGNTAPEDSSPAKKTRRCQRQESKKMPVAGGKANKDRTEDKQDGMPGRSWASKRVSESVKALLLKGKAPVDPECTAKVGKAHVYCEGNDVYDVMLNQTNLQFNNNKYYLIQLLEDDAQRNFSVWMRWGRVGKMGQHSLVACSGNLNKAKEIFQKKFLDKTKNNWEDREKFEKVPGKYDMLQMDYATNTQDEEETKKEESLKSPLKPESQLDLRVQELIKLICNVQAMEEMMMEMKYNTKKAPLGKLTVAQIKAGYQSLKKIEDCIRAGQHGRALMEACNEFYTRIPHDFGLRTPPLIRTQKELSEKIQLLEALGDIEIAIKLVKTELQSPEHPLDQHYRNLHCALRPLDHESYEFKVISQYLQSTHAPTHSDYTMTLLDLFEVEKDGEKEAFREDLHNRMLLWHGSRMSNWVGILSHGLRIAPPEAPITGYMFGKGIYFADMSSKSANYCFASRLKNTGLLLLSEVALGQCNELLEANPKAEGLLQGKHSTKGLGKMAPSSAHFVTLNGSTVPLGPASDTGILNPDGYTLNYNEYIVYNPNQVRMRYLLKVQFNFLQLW

| Structure (SMILES) | IC50 [1, 3] | IC50 [2, 4] | IC50 [1] | TNKS2 pIC50 ± SEM ([2]; experiment repeated three times) | IC50 [2] |
| --- | --- | --- | --- | --- | --- |
| Cc1ccc2c(c1)sc1nncn12 [Compound 1] | 4 µM | 5.3 µM |  |  |  |
| Cc1cc(C)c2c(c1)sc1nncn12 [Compound 2] | 1.3 µM | 1.2 µM |  |  |  |
| c1ccc2c(c1)sc1nncn12 [Compound 3] |  | 2.5 µM | 5.3 µM |  |  |
| Cc1ccc(F)c2c1sc1nncn12 [Compound 4, 5-Fluoro-8-methyl[1,2,4]triazolo[3,4-b][1,3]benzothiazole] |  | 5.4 µM |  |  |  |
| Cc1ccc2sc3nncn3c2c1 [Compound 5, 6-Methyl[1,2,4]triazolo[3,4-b][1,3]benzothiazole] | 1.5 µM |  |  | (6.02 ± 0.13) |  |
| Cc1cccc2c1sc1nncn12 [Compound 6, 8-Methyl[1,2,4]triazolo[3,4-b][1,3]benzothiazole] | 8.3 µM | 3.8 µM |  |  |  |
| CCc1ccc2c(c1)sc1nncn12 [Compound 7, 7-Ethyl[1,2,4]triazolo[3,4-b][1,3]benzothiazole] | 3.9 µM | 5.3 µM |  |  |  |
| CC(C)c1ccc2c(c1)sc1nncn12 [Compound 8, 7-Isopropyl[1,2,4]triazolo[3,4-b][1,3]benzothiazole] | 4.5 µM | 9.5 µM |  |  |  |
| Clc1ccc2c(c1)sc1nncn12 [Compound 9] | 2.4 µM | 10 µM |  |  |  |
| COc1ccc2sc3nncn3c2c1 [Compound 11, 6-Methoxy[1,2,4]triazolo[3,4-b][1,3]benzothiazole] | 4.7 µM | 1 µM |  |  |  |
| COc1ccc2c(c1)sc1nncn12 [Compound 12] | 8.8 µM | 5.5 µM |  |  |  |
| COc1ccc(OC)c2c1sc1nncn12 [Compound 13, 5,8-Dimethoxy[1,2,4]triazolo[3,4-b][1,3]benzothiazole] | 9.2 µM | 4 µM |  |  |  |
| COc1cccc2c1sc1nncn12 [Compound 14, 8-Methoxy[1,2,4]triazolo[3,4-b][1,3]benzothiazole] |  | 24 µM | > 10 µM |  |  |
| COc1cccc2sc3nncn3c12 [Compound 15, 5-Methoxy[1,2,4]triazolo[3,4-b][1,3]benzothiazole] |  | 1 µM |  |  |  |
| COc1cc(OC)c2sc3nncn3c2c1 [Compound 16, 6,8-Dimethoxy[1,2,4]triazolo[3,4-b][1,3]benzothiazole] | 20 µM | 7.6 µM |  |  |  |
| Oc1cccc2c1sc1nncn12 [Compound 18, [1,2,4]Triazolo[3,4-b][1,3]benzothiazol-8-ol] | 29 µM | 17 µM |  |  |  |
| CSc1nnc2sc3cc(C)ccc3n12 [Compound 21, 7-Methyl-3-(methylthio)[1,2,4]triazolo[3,4-b][1,3]benzothiazole] | 12 µM |  |  |  | > 100 µM |
| Cc1ccc2c(c1)sc1nnc(SCc3ccc(Cl)cc3)n12 [Compound 23, 3-[(4-Chlorobenzyl)thio]-7-methyl[1,2,4]triazolo[3,4-b][1,3]benzothiazole] |  |  | > 100 µM |  | > 100 µM |
| Cc1ccc2c(c1)sc1nnc(NCc3ccc(Cl)cc3)n12 [Compound 24, N-(4-chlorobenzyl)-7-methyl[1,2,4]triazolo[3,4-b][1,3]benzothiazol-3-amine] | 70 µM |  |  |  | > 100 µM |
| Cc1ccc2c(c1)sc1nnc(/N=C\c3ccc(Cl)cc3)n12 [Compound 25, N-[(1Z)-(4-chlorophenyl)methylene]-7-methyl[1,2,4]triazolo[3,4-b][1,3]benzothiazol-3-amine] | 2.9 µM |  |  |  | > 100 µM |
| COc1ccc(OC)c2c1sc1n[nH]c(=S)n12 [Compound 26, 5,8-Dimethoxy[1,2,4]triazolo[3,4-b][1,3]benzothiazole-3(2H)-thione] | 19 µM | 66 µM |  |  |  |
| COc1ccc(OC)c2c1sc1nnc(NC(=O)C(C)(C)C)n12 [Compound 30, N-(5,8-dimethoxy[1,2,4]triazolo[3,4-b][1,3]benzothiazol-3-yl)-2,2-dimethylpropanamide] | 53 µM |  |  |  |  |
| COc1ccc(OC)c2c1sc1nnc(NC(C)=O)n12 [Compound 31, N-(5,8-dimethoxy[1,2,4]triazolo[3,4-b][1,3]benzothiazol-3-yl)acetamide] | 97 µM |  |  |  |  |
